“Also recorded” adds a separate entry of the source.
Experiments:
Fmr1 KO mice [1] = experiment: Conditioned fear response to mild foot shock (cued portion); assay type: in vivo; conditions: both dose levels (1 and 3 mg/kg), oral gavage, KO mice vs WT
Method: (§1) Throughout experiments in Fmr1 KO mice, we treated animals with 1 mg/kg AZD7325, 3 mg/kg AZD7325 or vehicle (VEH) by oral gavage to mimic the human exposure route. Juvenile mice were treated acutely and adult mice were treated chronically prior to and throughout behavior analysis.
(§2) Audiogenic seizure susceptibility in Fmr1 KO mice, which is thought to be the result of increased neuronal activity in response to sensory stimuli, peaks around the third week of life and manifests as wild running which is typically followed by tonic-clonic seizure. […] In adulthood, Fmr1 KO mice have abnormal motor responses to sensory stimuli compared to WT mice in an acoustic startle paradigm. […] This type of deficit in the VEH-treated Fmr1 KO mice is reminiscent of the exaggerated anxiety responses people with FXS commonly display.

Fmr1 KO mice [2] = experiment: Audiogenic seizure susceptibility (120 dB siren); assay type: in vivo; conditions: oral gavage, acute, 30 min prior to testing, juvenile mice, VEH approximately 60%
Method: as §1, §2

Fmr1 KO mice [3] = experiment: Novel object recognition paradigm; assay type: in vivo; conditions: low dose (1 mg/kg), oral gavage, KO mice vs KO+VEH
Method: as §1, §2
Based upon preclinical data in FXS implicating insufficient GABA(A) activity in the pathophysiology of the disorder combined with preclinical and human evidence (unpublished data) supporting the tolerability and effectiveness of improving aberrant behavior, 4-amino-8-(2-fluoro-6-methoxy-phenyl)-N-propyl-cinnoline-3-carboxamide is an ideal molecule to develop as a clinical treatment in humans with FXS.

Fmr1 KO mice [4] = experiment: Acoustic startle paradigm (whole body flinch, Vmax); assay type: in vivo; conditions: adult Fmr1 KO mice
Method: In adulthood, Fmr1 KO mice have abnormal motor responses to sensory stimuli compared to WT mice in an acoustic startle paradigm.
as §1, §2

FXS KO mice [5] = conditions: preclinical literature; cited from earlier work
FXS KO mice [6] = conditions: preclinical literature; cited from earlier work; remark: listed apart in the source
FXS KO mice [7] = conditions: literature; cited from earlier work
FXS KO mice [8] = conditions: literature; cited from earlier work; remark: listed apart in the source
FXS KO mice [9] = conditions: literature; cited from earlier work; remark: listed apart in the source

## CCCNC(=O)c1nnc2c(-c3c(F)cccc3OC)cccc2c1N [AZD7325, 4-amino-8-(2-fluoro-6-methoxy-phenyl)-N-propyl-cinnoline-3-carboxamide]
Fmr1 KO mice [1]
  Conditioned fear response, cued portion of the test: normalizing this behavior in KO mice
Fmr1 KO mice [2]; high dose (3 mg/kg)
  Fmr1 KO mice displaying wild running followed by seizure: 0%
Fmr1 KO mice [2]; low dose (1 mg/kg)
  Fmr1 KO mice displaying wild running followed by seizure: 11%
Fmr1 KO mice [3]
  Object memory in novel object recognition (discrimination index): attenuates deficits in object memory
Fmr1 KO mice [3]; listed as 4-amino-8-(2-fluoro-6-methoxy-phenyl)-N-propyl-cinnoline-3-carboxamide
  Object memory in novel object recognition (discrimination index): attenuates deficits in object memory; also recorded: greater interest in the novel object
Fmr1 KO mice [4]; 82 db white noise burst, 10 trial blocks, chronic low dose
  Whole body flinching, low-level acoustic startle: significantly reduced whole body flinching
Fmr1 KO mice [4]; 120 dB stimulus, chronic treatment
  Whole body flinch response, high level acoustic stimulus: improves this response to WT levels

## CC(=O)[C@H]1CC[C@H]2[C@@H]3CC[C@H]4C[C@H](O)CC[C@]4(C)[C@H]3C(=O)C[C@]12C [alphaxalone]
FXS KO mice [5]
  Anxiety: reductions in anxiety
FXS KO mice [6]
  Audiogenic seizures: rescue of audiogenic seizures

## Oc1noc2c1CCNC2 [gaboxadol]
FXS KO mice [7]
  Prepulse inhibition (PPI) alterations: reduced prepulse inhibition (PPI) alterations
FXS KO mice [8]
  Hyperactivity: reduced hyperactivity
FXS KO mice [9]
  Neuron excitability deficits in the amygdala: restored neuron excitability deficits in the amygdala
